Reference: patent US5698523A, “Acylated enol derivatives as prodrugs of elastase inhibitors” (Merrell Pharmaceuticals Inc., priority 1996, dated 1997)

Target: T1, Human neutrophil elastase (Homo sapiens, UniProt P08246)
T1 construct: Enzyme was isolated from human sputum; from tissue; host or cells: human sputum
T1 sequence (P08246 30-267): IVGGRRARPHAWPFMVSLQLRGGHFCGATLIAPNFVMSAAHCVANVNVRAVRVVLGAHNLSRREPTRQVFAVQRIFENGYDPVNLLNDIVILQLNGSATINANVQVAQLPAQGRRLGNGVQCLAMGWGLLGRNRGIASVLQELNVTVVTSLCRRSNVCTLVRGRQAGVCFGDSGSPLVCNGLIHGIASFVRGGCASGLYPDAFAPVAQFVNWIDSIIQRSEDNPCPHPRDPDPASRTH
Experiment: In vitro assay of human neutrophil elastase in the presence of prodrug and porcine liver esterase
Type: biochemical
Conditions: for time course / onset of inhibition of elastase compared with MDL 103,279: 66 nM compound + porcine liver esterase, FIG. 2
Method: Human neutrophil elastase was assayed in vitro using N-MeOSuc-Ala-Ala-Pro-Val-p-nitroanilide, available commercially, as substrate. The assay techniques are similar to those described by Mehdi, et al., Biochemical and Biophysical Research Communications, 166, 595 (1990). The assay mixture consisted of partially purified elastase and substrate (0.2 mM) in 0.1M HEPES (pH 7.5), 0.5M NaCl, 10% DMSO and 0.1% Brij 35. The reaction (3.0 mL, in a plastic cuvette) was maintained at 37° C. and the hydrolysis of the substrate was followed in the presence of 66 nM of MDL 103,279 and 12.5 units of porcine liver esterase (Sigma Chemical Co., cat. no. E-3128). Enzyme was isolated from human sputum, although recently it has become commercially available. The time course of the reaction was followed for 60 min. […] From the final rate, a Ki of 25 nM was calculated for the final inhibitory species, presumed to be MDL 101,146 (as disclosed in European Pat. Appl. OPI No. 0529568, published Mar. 3, 1993). This is consistent with the Ki obtained independently for MDL 101,146. The Ki for MDL 103,279, the prodrug, was estimated from the initial rate to be greater than 2 μM. To rule out interference of the esterase with the elastase assay, or a significant spontaneous (i.e. non-enzymatic) hydrolysis rate of MDL 103,279, the following control experiments, as portrayed in FIG. 1, were performed: (A) elastase+elastase substrate; (B) elastase+elastase substrate+porcine liver esterase; (C) elastase+elastase substrate+MDL 103,279; as well as (D) elastase+elastase substrate+esterase+MDL 103,279.

half-time of the progressive increase in extent of inhibition of elastase (66 nM compound, 12.5 units porcine liver esterase, 37° C., followed for 60 min)	Ki (66 nM compound, 12.5 units porcine liver esterase, pH 7.5, 37° C., read-out: Ki of the prodrug estimated from the initial rate)	time course / onset of inhibition of elastase compared with MDL 103,279	Structure (SMILES)
approximately 10 min	> 2000 nM	–	CC(=O)OC(=C(NC(=O)[C@@H]1CCCN1C(=O)[C@@H](NC(=O)c1ccc(C(=O)N2CCOCC2)cc1)C(C)C)C(C)C)C(F)(F)C(F)(F)F [MDL 103,279, (E)-N-[4-(4-Morpholinylcarbonyl)benzoyl]-L-valyl-N-[2-(acetyloxy)-3,3,4,4,4-pentafluoro-1-(1-methylethyl)-1-butenyl]-L-prolinamide]
–	–	same time course	CCC(=O)OC(=C(NC(=O)[C@@H]1CCCN1C(=O)[C@@H](NC(=O)c1ccc(C(=O)N2CCOCC2)cc1)C(C)C)C(C)C)C(F)(F)C(F)(F)F [MDL 104,226, (E)-N-[4-(4-Morpholinylcarbonyl)benzoyl]-L-valyl-N-[3,3,4,4,4-pentafluoro-1-(1-methylethyl)-2-(1-oxopropoxy)-1-butenyl]-L-prolinamide]
–	–	significantly slower	CC(=O)OC(=C(NC(=O)[C@@H]1CCCN1C(=O)[C@@H](NC(=O)c1ccc(C(=O)N2CCOCC2)cc1)C(C)C)C(C)C)C(F)(F)C(F)(F)F [MDL 105,457, (Z)-N-[4-(4-Morpholinylcarbonyl)benzoyl]-L-valyl-N-[2-(acetyloxy)-3,3,4,4,4-pentafluoro-1-(1-methylethyl)-1-butenyl]-L-prolinamide]
–	–	same time course	CC(C)C(=O)OC(=C(NC(=O)[C@@H]1CCCN1C(=O)[C@@H](NC(=O)c1ccc(C(=O)N2CCOCC2)cc1)C(C)C)C(C)C)C(F)(F)C(F)(F)F [MDL 105,658, (E)-N-[4-(4-Morpholinylcarbonyl)benzoyl]-L-valyl-N-[3,3,4,4,4-pentafluoro-1-(1-methylethyl)-2-(2-methyl-1-oxopropoxy)-1-butenyl]-L-prolinamide]
